For one data set, the target named is T1, human FGFR4 (Homo sapiens, UniProt P22455).
T1 construct: purchased Invitrogen P3054
In words: 33P isotope-labeled kinase activity assay, FGFR4. In kind it is biochemical. To be noted: ATP 100 μM. How it is done:
The IC50 value was tested by ^33P isotope-labeled kinase activity assay (Reaction Biology Corp) to evaluate the inhibition of the test compounds on human FGFR1, FGFR4, and c-Met.
Buffer: 20 mM Hepes (pH 7.5), 10 mM MgCl2, 1 mM EGTA, 0.02% Brij35, 0.02 mg/ml BSA, 0.1 mMNa3VO4, 2 mM DTT, and 1% DMSO.
Test procedure: At room temperature, the test compound was dissolved in DMSO to prepare a 10 mM solution for use. The substrate was dissolved in freshly prepared buffer, and the test kinase was added and mixed well. A solution of the test compound in DMSO was added to the mixed reaction solution using an acoustic technology (Echo550). The compound concentration in the reaction solution was 1 μM, 0.25 μM, […], 0.977 nM, 0.244 nM, 0.061 nM, 0.0153 nM, 0.00381 nM, or 10 μM, 2.50 μM, 0.62 μM, 0.156 μM, 39.1 nM, 9.8 nM, 2.4 nM, 0.61 nM, 0.15 nM, and 0.038 nM, respectively. After 15 min of incubation, ^33P-ATP (with an activity of 0.01 μCi/nL, the corresponding concentration is listed in Table 18) was added to start the reaction. The supplier's catalogue number, lot number, and concentration in the reaction solution of FGFR1, FGFR4, c-Met, and substrates thereof are listed in Table 18. […]

Data set [1] in a line: Hygroscopicity test by dynamic vapor sorption (DVS). Type of data set: physicochemical. Here is the method:
Dynamic Vapor Sorption (DVS) of the Present Invention • Instrument model: SMS DVS Intrinsic Dynamic Vapor Sorption Analyzer • Test method: A sample (10-30 mg) is tested in a DVS sample pan. Detailed DVS Parameters: • Temperature: 25° C. • Equilibration: dm/dt=0.002%/min (Minimum: 10 min, Maximum: 180 min) • RH (%) test interval: 10 (0-90%), 5 (90-95%) • RH (%) test interval range: 0-95-0 Hygroscopicity evaluations are classified as follows: [table] Note: AW % represents the hygroscopic weight gain of the test product at 25° C./80% RH. Experimental Method: • 10-30 mg of the crystal form A of the compound of Formula (II) was placed in the DVS sample pan and tested. Experimental Method: • 10-30 mg of the crystal form G of the compound of Formula (III) was placed in the DVS sample pan and tested. Experimental Method: • 10-30 mg of the crystal form J of the compound of Formula (IV) was placed in the DVS sample pan and tested.

A short description of data set [2]: Pharmacokinetic evaluation in rats (intravenous and oral). In kind it is in vivo, male SD rats. Here is the method: For agents for intravenous administration, 30% (v/v) PEG400 in purified water was as a vehicle. An appropriate amount of compound was accurately weighed into a glass flask, 30 vol % of PEG400 of the container volume was slowly added to the container with stirring, and then the remaining 70 vol % of pure water was added to make up to the final volume and stirred continuously until a clear solution was obtained. The solution was filtered through a […] filter membrane, and stored at room temperature for later use. The agents for intravenous administration were formulated on the day of administration, and injected into male SD rats via tail vein (fasted overnight before administration) at a dose of 0.5 mg/kg. Approximately 0.18 mL of blood was collected from the jugular vein or tail vein at 0.0833, 0.25, 0.5, 1.0, 2.0, 4.0, 8.0 and 24 hrs after intravenous administration. The corresponding test compound in the vehicle was administered by gavage to male SD rats (fasted overnight before administration) at a dose of 5 mg/kg. The experimental conditions are detailed in Table 20. Blood was collected from the jugular or tail vein at 0.0833, 0.25, 0.5, 1.0, 2.0, 4.0, 6.0, 8.0 and 24 hrs after oral administration. The blood was fed to an anticoagulation tube supplemented with EDTA-K2, and centrifuged to separate plasma. The plasma concentrations were determined by LC-MS/MS, and the relevant pharmacokinetic parameters were calculated by the linear logarithmic trapezoid method of non-compartmental model using WinNonlm™ Version 6.3 (Pharsight, Mountain View, CA) pharmacokinetic software.

In another data set the test system is SNU-16 xenograft model. In words: In vivo pharmacodynamic evaluation, SNU-16 xenograft model. Also noted: species or system nude mice. To be noted: for TGI % (the last dose is given on day 30): SNU-16 xenograft model, nude mice. Here is the method: SNU-16 cells in logarithmic growth phase were harvested, counted and resuspended in 50% PBS (pH 7.4, 0.01 M) and 50% Matrigel. The cell concentration was adjusted to 4×10^7 cells/mL, and the cells were then placed in an ice box. The cell suspension was aspirated with a 1 mL syringe and injected subcutaneously into the anterior right axilla of nude mice, at a dose of 200 μL/animal (8×10^6 cells/animal) to establish a SNU-16 xenograft model. The animal status was observed periodically, and the tumor size was measured using an electronic vernier caliper. The data was entered into an Excel spreadsheet, and the tumor volume was calculated, to monitor the tumor growth. When the tumor volume reached 100-300 mm^3, 35 tumor-bearing mice (with a tumor volume of 112-182 mm^3) in good health status having similar tumor volume were selected and randomized into 5 groups (n=7). The average tumor volume in each group was about 150 mm^3. After the test was started, the tumor size was measured twice a week, the tumor volume was calculated, and the body weight of the animal was weighed and recorded.
Analysis of tumor growth inhibition (TGI): The evolutionary growth potential of tumors was evaluated by the relationship between the tumor volume and time. The long axis (L) and short axis (W) of subcutaneous tumor were measured twice a week by a caliper, and the tumor volume (TV) was calculated by the formula ((L×W^2)/2). TGI was calculated from the difference between the median tumor volume of the mice in the solvent group and the median tumor volume of the mice in the drug group, and expressed as a percentage relative to the median tumor volume in the solvent control group.
The test data was calculated and statistically processed by SPSS19.0. Unless otherwise specified, the data were expressed as mean±standard error (Mean±SE), and the comparison between the two groups was analyzed by T-test. […] The solvent 30% PEG400 (containing 70% deionized water, v/v) alone was used as the negative control.

[3] abbreviates: intravenous, 0.5 mg/kg, male SD rats.
[4] abbreviates: oral (gavage), 5 mg/kg, male SD rats.
Where [5] appears, read: rat, plasma, PO, 5 mg/kg, male SD rats (table title says mice).

Where two headings read alike, the source gives them in different places.

Usually IC50 stands for the midpoint of a concentration-inhibition curve. Low values mean greater potency in that assay, high ones weaker potency in that assay. For orientation: AUC(0-t) means exposure summed from dosing to a finite time, without extrapolation to infinity. Low values mean less exposure, high ones more exposure. As a reminder, the Cmax is the highest concentration seen after dosing. A word on the Tmax: it is the time from dosing to the highest level.

T1 sequence (P22455 22-802): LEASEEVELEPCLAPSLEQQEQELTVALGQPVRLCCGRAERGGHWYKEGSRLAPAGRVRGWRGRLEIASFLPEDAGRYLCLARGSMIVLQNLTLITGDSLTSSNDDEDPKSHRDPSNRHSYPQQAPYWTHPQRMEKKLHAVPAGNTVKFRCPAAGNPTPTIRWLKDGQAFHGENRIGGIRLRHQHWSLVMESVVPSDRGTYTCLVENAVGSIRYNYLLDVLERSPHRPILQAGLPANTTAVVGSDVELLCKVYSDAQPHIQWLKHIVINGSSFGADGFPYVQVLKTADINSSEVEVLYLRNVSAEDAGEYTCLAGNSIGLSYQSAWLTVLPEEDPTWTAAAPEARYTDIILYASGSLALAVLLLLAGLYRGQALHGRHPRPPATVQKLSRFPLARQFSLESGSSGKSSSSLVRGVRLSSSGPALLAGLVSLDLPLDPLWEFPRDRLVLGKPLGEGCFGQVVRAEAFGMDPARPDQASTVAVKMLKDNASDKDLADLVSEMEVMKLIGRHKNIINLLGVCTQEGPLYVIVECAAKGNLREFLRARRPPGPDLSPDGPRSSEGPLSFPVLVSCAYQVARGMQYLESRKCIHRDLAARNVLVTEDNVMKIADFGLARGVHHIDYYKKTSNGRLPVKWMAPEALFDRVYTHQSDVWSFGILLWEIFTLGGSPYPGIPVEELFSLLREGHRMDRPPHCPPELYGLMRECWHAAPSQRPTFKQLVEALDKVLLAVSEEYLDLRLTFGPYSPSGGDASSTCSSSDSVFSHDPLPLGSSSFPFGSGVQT

Molecule `COc1cc(OC)c(F)c(Cc2c[nH]c3ncc(-c4cnn(CCO)c4)cc23)c1F.Cl` gave a 50% inhibitory concentration (IC50) at human FGFR4 of 1.49 nM. Besides, in data set [1] (25° C. and 80% RH, DVS), the “ΔW, hygroscopic weight gain” value is 0.3710%. Besides, the Classification of hygroscopicity entry in data set [1] (25° C./80% RH) was “slightly hygroscopic”. Besides, in data set [2] (setting [3]), the Drug exposure entry was “high level”, the Volume of distribution entry is “high”, the clearance entry was “moderately low” and the half-life result is given as “moderate”. Further, in data set [2] (setting [4]), the Oral exposure entry is recorded as “high level”; the “Oral exposure level compared with other salt crystal forms” value was “higher than that of the crystal form G of the compound of Formula (III), and the crystal form J of the compound of Formula (III)”; the Peak time entry was “rapid”. The area under the curve AUC(0-t) in data set [2] (rat, plasma, IV, 0.5 mg/kg, male SD rats (table title says mice)) was 1.01 µM·h. The clearance in data set [2] (rat, plasma, IV, 0.5 mg/kg, male SD rats (table title says mice), read-out: Cl) was 1.1 L/h/kg. For the same molecule, the half-life in data set [2] (rat, plasma, IV, 0.5 mg/kg, male SD rats (table title says mice), read-out: T1/2 (converted)) was 79.2 min. Besides, the Vd in data set [2] (rat, plasma, IV, 0.5 mg/kg, male SD rats (table title says mice), read-out: Vdss) turned out to be 1.87 L/kg. Besides, in data set [2] (setting [5]), the AUC(0-t) is 5.18 µM·h, the highest level (Cmax) was 1.96 µM and the time of peak concentration (Tmax) was found to be 30 min. Further, in the data set with SNU-16 xenograft model (2.5 mg/kg BID), the “TGI % (the last dose is given on day 30)” value was found to be 72%. The “TGI % (the last dose is given on day 30)” value in the data set on SNU-16 xenograft model (5.0 mg/kg BID) came to 86%. The Tumor inhibitory effect result in the data set on SNU-16 xenograft model (tumor model SNU-16, nude mice) was “excellent tumor inhibitory effect”.

Values taken from US11919898B2, “Crystal form of azaindole derivative and use thereof” (Wuxi Life Fountain Biotech Co., Ltd, priority 2020, dated 2024).
